Tests used:
HUVEC cells [1] = assay: Electric-field-induced reorientation of endothelial cells (orientation index Oi); assay type: cell-based; conditions: for orientation response in EF (in words): inhibitors 50 μM (latrunculin 50 nM), 1 hour before and during EF
Method: A series of images was taken with an image analyser immediately before EF exposure and at 4, 8 and 24 hours of EF exposure. Cell orientation was quantified as an orientation index (Oi), which is defined as Oi=cos2 (a), where a is the angle formed by the long axis of a cell with a line drawn perpendicular to the field lines. A cell with its long axis parallel to the vector of the EF will have an Oi of −1, and a cell with its long axis exactly perpendicular to the EF vector will have an Oi of +1. A randomly oriented population of cells will have an average Oi {defined as [Σn cos2(α)]+n} of 0. The significance of this two-dimensional orientation distribution against randomness was calculated using Rayleigh's distribution. A long:short axis ratio was calculated for assessment of elongation.
Cell alignment was quantified using an orientation index Oi=cos2(α), where a is the angle formed between the long axis of a cell and a line drawn perpendicular to the field lines. In cells oriented perpendicular to the field vector, the Oi is +1, cells parallel to the field vector give an Oi of −1 and random orientation gives an Oi of 0.

HUVEC cells [2] = assay: Electric-field-induced elongation of endothelial cells (long:short axis ratio); assay type: cell-based
Method: HUVEC cells were seeded in a trough formed by two parallel (1 cm apart) strips of glass coverslip (No. 1, length of 22 mm) fixed to the base of the dish with silicone grease. Scratch lines were made perpendicular to the long axis of the chamber with a fine sterile needle and used as reference marks for directed cell migration. Cells were incubated for 24-48 hours (37° C., 5% CO2) before a roof coverslip was applied and sealed with silicone grease. The final dimensions of the chamber, through which current was passed, were 22×10×0.2 mm. Agar-salt bridges not less than 15 cm long were used to connect silver/silver-chloride electrodes in beakers of Steinberg's solution (58 mM NaCl, 0.67 mM KCl, 0.44 mM Ca(NO3)2, 1.3 mM MgSO4, 4.6 mM Trizma base, pH 7.8-8.0), to pools of excess culture medium at either side of the chamber. Field strengths were measured directly at the beginning of, the end of and during each experiment. No fluctuations in field strength were observed. […] (50 μM), the Rho kinase inhibitor Y27632 (50 μM), both Akt and Rho kinase inhibitors (10 μM each) or latrunculin (50 nM) for 1 hour before EF stimulation. The same concentration of drug was present during EF exposure in a CO2 incubator.
A series of images was taken with an image analyser immediately before EF exposure and at 4, 8 and 24 hours of EF exposure. Cell orientation was quantified as an orientation index (Oi), which is defined as Oi=cos2 (a), where a is the angle formed by the long axis of a cell with a line drawn […] to the field lines. A cell with its long axis parallel to the vector of the EF will have an Oi of −1, and a cell with its long axis exactly perpendicular to the EF vector will have an Oi of +1. […] The significance of this two-dimensional orientation distribution against randomness was calculated using Rayleigh's distribution. A long:short axis ratio was calculated for assessment of elongation.
HUVEC cells elongated dramatically in an EF. […] We quantified the elongation of the cells using a long:short axis ratio. […]

[3] = test system: HaCaT human keratinocytes; assay: Scratch assay, HaCaT keratinocyte migration, Example 3; conditions: catalase over-expression; 5 mM N-acetylcysteine 1 h pretreatment; 50 nM IGF-1R inhibitor
Method: Cell culture—Immortalized HaCaT human keratinocytes were grown in Dulbecco's low-glucose modified Eagle's medium (Life Technologies, Gaithersburg, MD, U.S.A.) supplemented with 10% fetal bovine serum, 100 U/ml penicillin, and 100 g/ml streptomycin. The cells were maintained in a standard culture incubator with humidified air containing 5% CO2 at 37° C.
Scratch assay—A cell migration assay was performed using culture inserts (IBIDI®, Verona, WI) according to the manufacturer's instructions. Cell migration was measured using time-lapse phase-contrast microscopy following withdrawal of the insert. Images were analyzed using the AxioVision Rel 4.8 software.
N-Acetyl Cysteine Treatment—Cells were pretreated with 5 mM of the thiol antioxidant N-acetylcysteine (Sigma) for 1 h before start of the scratch assay.
IGF-1R inhibition—When applicable, cells were preincubated with 50 nM IGF-1R inhibitor, picropodophyllin (Calbiochem, MA) just prior to the Scratch Assay.
Catalase gene delivery—HaCaT cells were transfected with 2.3×10^7 pfu AdCatalase or with the empty vector as control in 750 μL of media. Subsequently, 750 μL of additional media was added 4 h later and the cells were incubated for 72 h.

Row | Compound | orientation response in EF (in words) (HUVEC cells [1]) | long:short axis ratio / elongation response in EF-treated cells (in words) (HUVEC cells [2]) | effect on the increased migration triggered by LLEC [3] | other results
1 | 1-L-6-hydroxymethyl-chiro-inositol 2-[(R)-2-O-methyl-3-O-octadecylcarbonate] [Akt inhibitor] | significantly decreased the orientation response | significantly decreased the long:short axis ratio | – | –
2 | COc1cc([C@@H]2c3cc4c(cc3[C@H](O)[C@H]3COC(=O)[C@@H]23)OCO4)cc(OC)c1OC [IGF-1R inhibitor, picropodophyllin] | – | – | attenuated the increased keratinocyte migration | –
3 | C/C1=C/C(=O)O[C@@H]2C[C@@H](CC[C@H](C)/C=C\C=C\CC1)O[C@@](O)([C@@H]1CSC(=O)N1)C2 [Latrunculin A] | suppressed the orientation response significantly | completely abolished the EF-induced elongation response | – | –
4 | CC(=O)N[C@@H](CS)C(=O)O [N-Acetyl Cysteine] | – | – | failed to reproduce the increased migration | –
5 | N#CC(=C(/N)Sc1ccccc1N)/C(C#N)=C(\N)Sc1ccccc1N [U0126] | decreased the orientation to a similar extent | – | – | –
6 | COc1cc2ncnc(Nc3ccc(Cl)cc3F)c2cc1OC [VEGFR inhibitor, 4-[(4′-chloro-2′-fluoro)phenylamino]-6,7-dimethoxyquinazoline] | completely abolished the reorientation | – | – | –
7 | C[C@@H](N)[C@H]1CC[C@H](C(=O)Nc2ccncc2)CC1 [Y27632] | – | significantly decreased the long:short axis ratio | – | orientation index Oi (HUVEC cells [1]; value in sentence on U0126 (50 μM)): 0.33±0.03
8 | catalase | – | – | attenuated the increased migration | –

— US12185774B2, “Methods and devices for preventing viral transmission” (priority 2020, dated 2025)
